According to US9907760B2 (LIBRAGEN, priority 2010, dated 2018):

Tests used:
[1] = test system: acid GAGs in the papillary dermis; assay: Acid glycosaminoglycan (GAG) content of human skin explants (alcian blue staining, image analysis); type: cell-based
Protocol: In particular, the following parameters were evaluated: • general skin morphology after staining with Masson trichrome, • acid glycosaminoglycan (GAG) content after alcian blue staining, • expression level of the hyaluronic acid CD44 receptor after immunolabeling of this receptor.
Thirty-three explants (approximately 10 mm in diameter) were taken from a person (P712AB36) undergoing abdominoplasty. The explants were divided into 11 groups of three explants and placed in special skin explant survival medium.
RetinOx+Day cream was applied on the explants at 1 mg/cm^2 on days D0, D2, D3, D6 and D8.
On D0, D2, D3, D6 and D8, 30 μA of products P1, P2 and P3 were deposited on filter paper disks placed on the explants.
On D0, the three explants in group CO were sampled and cut in two. One-half was fixed in ordinary Bouin's solution and the other half stored at −80° C. On D6 and D10, three explants from each group were sampled and treated in the same manner.
After 48 hours of fixing in ordinary Bouin's solution, samples were dried and impregnated in paraffin using a Leica 1020 automated tissue processor, then embedded according to operating procedure MO-H-153 using a Leica EG 1160 embedding station. 5 μm sections were prepared according to operating procedure MO-H-173 using a Leica RM 2125 Minot microtome and mounted on Superfrost® histologic glass microscope slides.
Acid GAGs were visualized with alcian blue staining. They were present throughout the papillary dermis.
In this zone, the GAGs under study are stained blue and correspond to acid GAGs.
The intensity of staining was quantified by image analysis.
Acid GAGs were quantified by image analysis. The results are expressed as the percentage of the analyzed area in Table 10 below.

[2] = test system: normal human fibroblasts; assay: Hyaluronic acid production by normal human fibroblasts treated with supernatant of treated keratinocytes (HA-ELISA); type: cell-based; settings: supernatant on fibroblasts 48 hrs; for % stimulation of hyaluronic acid synthesis: vs Control
Protocol: Normal human dermal fibroblasts were cultured to confluence. Cells were treated for 48 hours with supernatants of normal human keratinocytes previously grown in the presence of the test products. The fibroblast supernatants, containing hyaluronic acid, were collected and assayed immediately. Hyaluronic acid was quantified with an ELISA microtiter plate. Protein content was determined for each well of the microtiter plate.
Primocultures of normal human keratinocytes (NHK) were obtained from cells isolated from skin specimens from plastic surgery.
NHK were seeded at a density of 130,000 cells/well in specific KSFM culture medium (Gibco®, Invitrogen) in a 24-well plate. The plate was placed in a humid incubator (37° C., 5% CO2) for 24 hours.
Primocultures of normal human fibroblasts (NHF) were obtained from cells isolated from skin specimens from plastic surgery.
NHF were seeded at a density of 90,000 cells/well in E-199 culture medium supplemented with 0.5% FCS (Gibco® Invitrogen) in a 24-well plate. The plate was placed in a humid incubator (37° C., 5% CO2) for 24 hours.
The two cell types—NHK and NHF—were plated 48 hours apart.
The different products at the respective concentrations (diluted in KSFM medium, 600 μl) were contacted with NHK cells for 48 hours. Untreated cells were used as the control condition. Two plates were used to separately test NAG, and NAG+vitamin A propionate, on the one hand, and NAG6P, and NAG6P+vitamin A propionate, on the other hand.
Each treatment condition was evaluated on three wells of NHK cells.
After 48 hours, a fraction of NHK cell supernatant (300 μl/well) was removed and transferred well for well into NHF cell supernatants (300 μl E-199/well−fresh medium without FCS).
This gave a final volume of 600 μl/well (50:50 ratio of KSFM/E-199 medium) which remained on the NHF cells for 48 hours.
After 48 hours of treatment, the NHF cell supernatant was collected and centrifuged.
Hyaluronic acid was assayed in the cell supernatants as described in example 1.
The assay was performed in duplicate for each well.
Optical densities (OD) measured on each sample were plotted on a graph (specific standard curve in the kit). The hyaluronic acid concentration was expressed in ng/ml.
The amount of hyaluronic acid released by the cells was determined for each well and for each treatment condition, relative to the cell content expressed as μg of protein. Thus, the final result was expressed as ng/ml of hyaluronic acid per μg of protein.
A mean value was calculated for wells treated with the same concentration of test product. This mean was compared with the mean of the control wells (Student t test−comparison of means−significant difference at 95% if p<0.05* and at 99% if p<0.01**).
The percent stimulation induced by the test products was determined by comparing the mean values of the control and treatment conditions: % Stimulation=(Treated−Control)/Control

For CC(=O)N[C@H]1C(O)O[C@H](COP(=O)(O)O)[C@@H](O)[C@@H]1O (some centres unmarked) [NAG6P, N-acetylglucosamine-6-phosphate], the “Acid GAGs, visual analysis” value ([1]; D6, NAG6P 1% to 0.01%) was “moderate along the DEJ and present throughout the papillary dermis, in a dose-dependent manner”, the “Percentage of area occupied by acid GAGs in the papillary dermis, % of analyzed area, Mean” value (“Percentage … % of analyzed area, Mean” below) ([1]; D10, NAG6P 0.01%) was 14.0% and the “Percentage … % of analyzed area, Mean” value ([1]; D10, NAG6P 0.1%) was 16.3%. For the same compound, the “Percentage … % of analyzed area, Mean” value ([1]; D10, NAG6P 1%) was 21.0%, the “Acid GAGs, visual analysis” value ([1]; D10, NAG6P 1% to 0.01%) was “moderately present along the DEJ and throughout the papillary dermis, in a dose-dependent manner” and the “Hyaluronic acid” value ([2]; 5 mM on keratinocytes 48 hrs) was 3524.1 ± 198.6 ng/mL. The “Hyaluronic acid (ng/ml/μg prot.)” value ([2]; 5 mM on keratinocytes 48 hrs) was 401.7 ± 38.3 ng/ml/μg prot, the “% stimulation of hyaluronic acid synthesis” value ([2]; 5 mM on keratinocytes 48 hrs) was 7% and the “Hyaluronic acid” value ([2]; 10 mM on keratinocytes 48 hrs) was 3507.6 ± 213.3 ng/mL. The “Hyaluronic acid (ng/ml/μg prot.)” value ([2]; 10 mM on keratinocytes 48 hrs) was 382.9 ± 20.5 ng/ml/μg prot and the “% stimulation of hyaluronic acid synthesis” value ([2]; 10 mM on keratinocytes 48 hrs) was 2%.
